According to PMC6406907, “A H2AX–CARP-1 Interaction Regulates Apoptosis Signaling Following DNA Damage” (Cancers, 2019):

Test system: HeLa cells
Assay: Comet assay (DNA damage), HeLa
Assay type: cell-based, human
Set-up: Olive Tail Moment (Mean) / Tail Moment (Mean): unit not given here
Conditions: for percentage of tail DNA and tail moment: 10 μM, 1, 3, 6, 12 h; for Olive Tail Moment (Mean) / Tail Moment (Mean) / %Tail DNA (Mean): 10 µM; for Olive Tail Moment (Mean): control 5.539; for Tail Moment (Mean): control 9.081; for %Tail DNA (Mean): control 28.414, alkaline electrophoresis, Vista Green
Description: The DNA damage assay was performed using a comet assay kit 96-well plate (Cell Bio Labs, CA, USA) as per the manufacturer’s instructions. Briefly, the cell suspension was mixed with the low-melting agarose at 1:20 ratio and added to the pre-coated 96 well plate. The cells were then subjected to lysis for 1 h, followed by alkaline electrophoresis. The plate was then washed in 70% ethanol and Vista Green DNA dye was added. The comets were visualized in Zeiss LSM780 Confocal microscope. The images were processed using Zeiss ZEN lite software and the comet parameters were measured using Open comet software.
Adriamycin is well known to induce DNA damage. Given the critical role of CARP-1 in apoptotic signaling by Adriamycin and CFM compounds, and the fact that stress-activated protein kinases (SAPKs) p38 and JNKs are activated in apoptosis signaling by CFM-4.16 [6, 12, 13, 14, 15, 16, 17, 18], we next determined whether CFM-4.16 also provoked DNA damage. We treated MDA-MB-468 and HeLa cells with a 10 μM dose of Adriamycin or CFM-4.16 for 1, 3, 6, and 12 h, followed by assessment of damaged DNA by the comet assay as described in Section 2. The presence of comet-like tails that contain the fragmented cellular DNA is a well-known marker/indicator of apoptosis. We measured the comet parameters such as percentage tail DNA and mean tail moment. […] Of note is the fact that Adriamycin and related anthracyclines intercalate between DNA bases and trap topoisomerase II (TopoII) in the double-strand cleavage form, thus introducing double-strand breaks (DSBs) due to TopoII poisoning. It remains to be clarified whether CFM-4.16 also targets cellular DNA and/or the associated DNA repair complex protein(s) to introduce DNA strand breaks, or activates caspase-activated DNAses to breakdown cellular genomic DNA.
Figure 2 Adriamycin and CFM-4.16 induce DNA damage. Cells were treated with the noted dose of respective compound for indicated time periods. Mean values for percentage tail DNA content (A,C) and Olive tail moment (B,D) for respective cells from control and treatment periods for each compound were measured using software recommended by the manufacturer of the kit for measurement of DNA damage (Cell Bio Labs, CA, USA). The columns in each chart indicate average values for respective treatment condition; bars, SE; * p ≤ 0.05.
Table S1. Adriamycin and CFM-4.16 stimulate DNA Damage in a time-dependent manner. MDA-MB-468 and HeLa cells were with noted dose of respective compound for indicated time periods.
Mean values for % tail DNA, Tail moment, and Olive tail moment for respective cells from control and treatment periods for each compound were measured using software recommended by the manufacturer of the kit for measurement of DNA damage (Cell Bio Labs, San Diego, CA, USA). The p values for each of the parameter are indicated below the mean values in each column for the treatment time period with each compound for both the cell lines.
Adriamycin (10 µM) CFM-4.16 (10 µM)

| SMILES | percentage of tail DNA and tail moment | Olive Tail Moment (Mean) (1 h) | Tail Moment (Mean) (1 h) | %Tail DNA (Mean) (1 h) | Olive Tail Moment (Mean) (3 h) | Tail Moment (Mean) (3 h) | %Tail DNA (Mean) (3 h) | Olive Tail Moment (Mean) (6 h) | Tail Moment (Mean) (6 h) | %Tail DNA (Mean) (6 h) | Olive Tail Moment (Mean) (12 h) | Tail Moment (Mean) (12 h) | %Tail DNA (Mean) (12 h) |
| --- | --- | --- | --- | --- | --- | --- | --- | --- | --- | --- | --- | --- | --- |
| COc1cccc2c1C(=O)c1c(O)c3c(c(O)c1C2=O)C[C@@](O)(C(=O)CO)C[C@@H]3O[C@H]1C[C@H](N)[C@H](O)[C@H](C)O1 [Adriamycin, doxorubicin, reference compound] | significantly increased | 18.8 | 32.09 | 40.8% | 39.9 | 61.8 | 76.74% | 47.9 | 79.11 | 84.98% | 60.49 | 102.2 | 93.4% |
| O=C1N(Cc2ccccc2Cl)c2ccccc2C12NN=C(c1cccc(Cl)c1)S2 (centres unmarked) [CFM-4.16] | significantly increased | 10.9 | 16.526 | 27.297% | 15.4 | 26.7 | 34.45% | 32.73 | 47.54 | 53.24% | 41.02 | 76.03 | 69.61% |
